Earlier results in PMC2750848 (Journal of medicinal chemistry, 2008).
Marks after values point to notes of the source that are not given here.

Tested on: M. tuberculosis H37Rv

5′-O-[N-(salicyl)sulfamoyl]adenosine [Compound 4]
MIC99 (Fe-deficient) (Fe-deficient): 0.39 ^i µM
MIC99 (Fe-rich) (Fe-rich): 1.56 ^i µM
